{"source": "patent US20030170826A1", "about": "“Peptides for facilitating composite receptor expression and translocation of macromolecules” (priority 2001, published 2003)", "molecules": {"B1": {"name": "fluor-G4YGRKKRRQR3G3MPNLWFL2FLGLVA2MQL5FL3F2LVYW DHFECSCTGLPF (peptide)", "chain": "fluor-GGGGYGRKKRRQRRRGGGMPNLWFLLFLGLVAAMQLLLLLFLLLFFLVYWDHFECSCTGLPF"}}, "key": {"[1]": {"system": "HeLa cells", "test": "Peptide mediated uptake of oligonucleotide FITC-O-24, FACS (FIG. 7)", "format": "cell-based, human", "conditions": "peptide 0.0-150 μM, fifteen minutes at room temperature", "description": "Flow cytometric analyses of cell subpopulations for these and other experiments described herein were performed using a FACS Vantage flow cytometer (Becton-Dickinson Immunocytometry Systems, San Jose, Calif.). The cells were excited at 488 nm. The FITC fluorescence was collected through a 530/30 nm band pass filter. A minimum of ten thousand cells was interrogated in each sample. Analysis of data was performed using CellQuest software (Becton-Dickinson).\nTo detect fluorescent labeled molecules associated with cells, the cells were first harvested in DPBS, incubated with a fluorescent labeled molecule of interest at varied concentrations (e.g., oligonucleotide at 50 μM mixed with 1×10^5 cells in 10 μl DPBS), incubated for 15 minutes at room temperature, diluted with 200 μl growth medium, and then analyzed by fluorescence activated cell sorting (FACS).\nNext, various peptide sequences and domains were tested for their abilities to facilitate translocation of the oligonucleotide FITC-O-24 across a cell membrane. The peptides tested included: K16 (G4K16; SEQ ID NO: 47); TAT (G4YGRKKRRQR3; SEQ ID NO: 48); TAK8 (G4YGRKKRRQR3G4K8; SEQ ID NO: 49); TAK12 (G4YGRKKRRQR3G4K12; SEQ ID NO: 50) and TAK16/TatK16 (G4YGRKKRRQR3G4K16; SEQ ID NO: 36). HeLa cells (1×10^5) were incubated with the oligonucleotide (0.6 μl, 50 μM) in 10 μl DPBS and various concentrations of the peptides (i.e., 0.0, 1.5, 5.0, 15.0, 50.0, or 150 μM). The cells were incubated in the presence of the mixtures for fifteen minutes at room temperature and then analyzed by FACS."}, "[2]": {"system": "SK-BR-3 cells", "test": "Peptide facilitated translocation of Cy3-O18 oligonucleotide, fluorescence microscopy (FIG. 6)", "format": "cell-based, human", "conditions": "for Cy3 label of the oligonucleotide in cells: mixture of Cy3-oligonucleotide and fluorescein labeled peptide"}, "[3]": {"system": "SupFG1 gene", "test": "Chromosomal mutations induced in the SupFG1 gene by triplex forming oligonucleotides", "format": "cell-based", "conditions": "murine cell line with SupFG1 gene in the genome; mutations/total plaques", "description": "The ability of TAK16 to facilitate translocation of oligonucleotides designed to form triplex DNA complexes with the SupFG1 sequence was tested in a murine cell line in which the SupFG1 gene is incorporated into the genome. The assay used measures chromosomal mutations induced in the SupFG1 gene by triplex forming oligonucleotides, as measured by mutations/total plaques. The ability of TAK16 to translocate triplex forming oligonucleotides was compared to that of Antennapedia (ANTP)-s-s-oligo complex and the lipid delivery system Gene Porter. The two oligonucleotides tested were AG13 (5′-AGGAA8-propylamine-3′; SEQ ID NO: 58) and AG30 (5′-AGGAAG8TGGTG5AG5AG-propylamine-3′; SEQ ID NO: 59). The groups tested were 1) control (no treatment); 2) AG13 alone; 3) AG13+Gene Porter; 4) AG13-s-s-ANTP; 5) AG13+TAK16; 6) AG30+Gene Porter; and 7) AG30+TAK16. […] It can be seen that the two highest mutation rates occurred in cells treated with AG13+TAK16 (group 5; 40×10^−5) and AG30+TAK16 (group 7; 36×10^−5)."}, "[4]": {"system": "SK-BR-3 cells", "test": "Localization of fluorescein labeled composite receptor peptides in cells, fluorescence microscopy (FIG. 1)", "format": "cell-based, human", "conditions": "800 nM Tat-K16, 800 nM CR1 or 400 nM CR2, 15 minutes"}, "[5]": {"system": "SK-BR-3 cells", "conditions": "200 nM peptide, 15 minutes on ice", "description": "FIG. 3, comprising FIG. 3A, FIG. 3B, and FIG. 3C, is a series of images of fluorescent micrographs illustrating the effects of a cell penetrating domain on the efficiency of composite receptors binding.\nSK-BR-3 cells were collected and washed and resuspended in DPBS-BSA. Then, 5×10^4 cells were mixed with 200 nM CR1 or delta-CR1 in 40 μl DPBS-BSA and incubated 15 minutes on ice. The cell were then washed in DPBS-BSA, resuspended in 50 μl DPBS-BSA, washed, and applied to slides. Fluorescence was analyzed by fluorescence microscopy using a monochrome filter for FITC. […] FIG. 3C depicts cells incubated with […] CR1."}, "[6]": {"system": "SK-BR-3 cells", "test": "Translocation of fluorescein labeled peptides containing a cell penetrating domain (FIG. 5)", "format": "cell-based, human", "conditions": "800 nM peptide, fifteen minutes at 37° C."}, "[7]": {"system": "HeLa cells", "test": "TAK16 mediated uptake of FITC-O-24, fluorescence microscopy (FIG. 8)", "format": "cell-based, human", "conditions": "TAK16 0.00, 0.36, 1.80 or 9.00 μM, FITC-O-24 2.5 μM"}, "[8]": {"system": "HeLa cells", "test": "TAK16 mediated uptake of 83-mer oligonucleotide O-83-FITC, FACS and fluorescence microscopy (FIG. 9, 10)", "format": "cell-based, human", "conditions": "TAK16 13.3 μM, O-83-FITC 0.00-1.8 μM"}, "[9]": {"system": "HeLa cells", "test": "TAK16 mediated uptake of Cy3 labeled 400 bp double stranded DNA and 5 kb plasmid DNA (FIG. 11)", "format": "cell-based, human", "description": "Next, it was decided to determine whether even larger nucleotides, including double stranded (DS) DNA or plasmid DNA, could be transported into a cell. Specifically, it was determined whether TAK16 could facilitate the transport of 400 base pair (bp) double stranded DNA and a 5 kb circular plasmid DNA (pECFP; enhanced cyano fluorescent protein) into cells. The DNAs were labeled with Cy3 reagent (“Label IT” Cy3 Nucleic Acid Labeling Kit; Mirus, Madison, Wis.), according to manufacturer's directions. This protocol usually yields one label per up to ten nucleotides. To this end, HeLa cells were prepared as above and then incubated with 400 ng of plasmid DNA or 60 ng of 400 bp DNA and with TAK16 (12 μM)."}, "[10]": {"system": "HeLa cells", "test": "Peptide-oligo mediated uptake of avidin-FITC (FIG. 12)", "format": "cell-based, human"}, "[11]": {"system": "HeLa cells", "test": "Peptide-oligo mediated uptake of horseradish peroxidase-avidin (HPA), cytochemical analysis (FIG. 13)", "format": "cell-based, human", "conditions": "TAK16 and Bio-O-22, 30 minutes at 37° C.", "description": "To further determine the ability of a fusion peptide to facilitate transport of a molecule associated with a nucleic acid across a cell membrane, TAK16 was tested for its ability to mediate transport of another protein. In this example, the protein horseradish peroxidase (HRP) was tested. The HRP was conjugated to avidin to yield 120 kD Horseradish Peroxidase-Avidin (HPA). Cells were obtained as above. HPA and Bio-O-22 were added to cells in DPBS at final concentrations of 8 μM and 8 μM, respectively, and then incubated for 15 minutes at room temperature. Then, 2.5 μl of the mix was added to 2×10^5 HeLa cells in 10 μl DPBS. Next, 12.5 μl of 100 μM TAK16 in DPBS was added to the mixture and incubated for 30 minutes at 37° C. Then the cells were washed and applied to slides. Cells on the slides were treated with 30 μl peroxidase suppressor solution to suppress endogenous peroxidase, washed with DPBS, treated with 30 μl Metal Enhanced DAB Substrate Working Solution, incubated for 15 minutes at room temperature, and then subjected to microscopic analysis. […] HPA activity or presence was detected using the DAB kit and the manufacturer's protocol."}, "[12]": {"test": "Intracellular transport of beta-galactosidase conjugated to an oligonucleotide", "format": "cell-based", "conditions": "similar experiments"}, "[13]": {"system": "SK-BR-3 cells", "conditions": "60 nM CR1 or CR1R, 30 minutes on ice, sodium azide", "procedure": "This difference in membrane orientation can be detected using an anti-FITC antibody which cannot penetrate the cellular membrane and therefore can only bind to an FITC on the outer cell surface. For CR1, FITC is an intracellular domain. However, for CR1R, FITC is an extracellular domain. […] SK-BR-3 cells were collected and washed in DPBS with 0.5% BSA (DPBS-BSA), resuspended in DPBS-BSA with 10 mM Sodium Azide, incubated for 20 minutes at room temperature, transferred to ice. 5×10^4 cells were mixed with 60 nM CR1 or CR1R in 20 μl DPBS-BSA, incubated 30 min on ice, washed in DPBS-BSA -Azide, and then resuspended in 50 μl DPBS-BSA-Azide. Then, 50 μl of anti-antibody in DPBS-BSA-Azide (dilution 1:50) was added, the suspension incubated on ice for 30 minutes, and then the cells were washed and applied to slides. Alexa-Fluor 594 fluorescence was analyzed by microscope using monochrome filter for Cy3.5.\nThis difference in orientation can be detected using an anti-FITC antibody which cannot penetrate the cellular membrane and therefore can only bind FITC which is on the outside cell surface and not inside the cell. […] Alexa-Fluor 594 fluorescence was analyzed using a fluorescent microscope and a monochrome filter for Cy3.5."}}, "note": "Ends that are not written are not given here. {propylamine} = propylamine end group; fluorescein = fluorescein label; fluor = fluorescein label"}
{"molecule": "G4K16 (GGGGKKKKKKKKKKKKKKKK; FITC-0-24 oligonucleotide cell membrane translocation facilitating peptide) [reference compound]", "values": [{"measurement": "facilitating transport of FITC-O-24 across the cell membrane", "setting": "[1]", "value": "Neither TAT, nor adapter domain, K16, were able to efficiently facilitate transport"}]}
{"molecule": "G4YGRKKRRQR3G4K8 (GGGGYGRKKRRQRRRGGGGKKKKKKKK; Human immunodeficiency virus type 1) [TAK8]", "values": [{"measurement": "facilitating transport of FITC-O-24 across the cell membrane", "setting": "[1]", "value": "decreased ability to facilitate transport"}]}
{"molecule": "fluor-G4YGRKKRRQR (fluorescein-GGGGYGRKKRRQR) [Tat, reference compound]", "values": [{"measurement": "Cy3 label of the oligonucleotide in cells", "setting": "[2]", "value": "not detected"}]}
{"molecule": "5′-AGGAA8-propylamine-3′ (AGGAAAAAAAAA; 3' {propylamine}, sugars by position and backbone not given here) [AG13]", "values": [{"measurement": "chromosomal mutation frequency induced in the SupFG1 gene", "setting": "[3]", "value": "8 ×10^−5"}]}
{"molecule": "G4YGRKKRRQR3G4K12 (GGGGYGRKKRRQRRRGGGGKKKKKKKKKKKK; Human immunodeficiency virus type 1) [TAK12]", "values": [{"measurement": "facilitating transport of FITC-O-24 across the cell membrane", "setting": "[1]", "value": "decreased ability to facilitate transport"}]}
{"molecule": "fluor-G3YGRKKRRQR3G3AAL3A19WK8-biotin [CR1]", "values": [{"measurement": "localization of fluorescein labeled peptide in the cell", "setting": "[4]", "value": "localized at the periphery of the cells, in a speckled distribution"}, {"measurement": "FITC fluorescence on the cell membrane", "setting": "[5]", "value": "high levels of fluorescence occur on the cell membrane"}]}
{"molecule": "fluor-G4YGRKKRRQR3G4K16 (fluorescein-GGGGYGRKKRRQRRRGGGGKKKKKKKKKKKKKKKK) [Tat-K16]", "values": [{"measurement": "localization of fluorescein labeled peptide in the cell", "setting": "[4]", "value": "located throughout the cell"}, {"measurement": "entry of peptide into the cell and localization", "setting": "[6]", "value": "entered the cell and were located in both the cytoplasm and the nucleus"}, {"measurement": "oligonucleotide Cy3-O18 translocation through the cell membrane", "setting": "[2]; 500 nM oligonucleotide and 80 nM peptide, fifteen minutes at 37° C.", "value": "facilitated"}, {"measurement": "Cy3 label of the oligonucleotide in cells", "setting": "[2]", "value": "located in the cytoplasm as well as in the nucleus"}, {"measurement": "facilitating transport of FITC-O-24 across the cell membrane", "setting": "[1]", "value": "most efficient"}, {"measurement": "fluorescent intensity associated with FITC-O-24", "setting": "[7]", "value": "increased in the cells incubated with increased amounts of TAK16 peptide"}, {"measurement": "cell associated fluorescent intensity of O-83-FITC (FACS)", "setting": "[8]; FACS", "value": "increased with increasing amounts of the 83-mer"}, {"measurement": "cellular associated fluorescence of O-83-FITC (microscopy)", "setting": "[8]; fluorescent microscopic analysis", "value": "increased cellular associated fluorescence"}, {"measurement": "cells with uptake of large double stranded DNA molecules, linear and circular", "setting": "[9]; TAK16 12 μM", "value": "~100", "unit": "%"}, {"measurement": "uptake of Cy3 labeled 400 bp DS DNA or plasmid DNA (fluorescence)", "setting": "[9]; […], TAK16 12 μM or no peptide", "value": "obvious fluorescence"}, {"measurement": "fluorescence of avidin-FITC in cells, with oligonucleotide Bio-O-22", "setting": "[10]; TAK16 + Bio-O-22 + avidin-FITC, 20 minutes at 37° C.", "value": "much higher levels of fluorescence"}, {"measurement": "fluorescence of avidin-FITC in cells, no oligonucleotide", "setting": "[10]; TAK16 and avidin-FITC, without Bio-O-22", "value": "did not exhibit appreciable levels of fluorescence"}, {"measurement": "HPA uptake, with oligonucleotide Bio-O-22", "setting": "[11]", "value": "facilitated"}, {"measurement": "intracellular transport of a 140 kD protein (beta-galactosidase) conjugated to an oligonucleotide", "setting": "[12]", "value": "able to facilitate intracellular transport"}]}
{"molecule": "biotin-G3YGRKKRRQR3G3AAL3A19WK8-FITC [CR1R]", "values": [{"measurement": "fluorescence of anti-fluorescein (anti-FITC) antibodies, Alexa-Fluor 594", "setting": "[13]", "value": "higher"}]}
{"molecule": "FITC-G3G3AAL3A19WK8-biotin [delta-CR1]", "values": [{"measurement": "FITC fluorescence on the cell membrane", "setting": "[5]", "value": "low level of fluorescence on the cell membrane"}]}
{"molecule": "B1", "values": [{"measurement": "localization of fluorescein labeled peptide in the cell", "setting": "[4]", "value": "localized in a few foci at the cell surface"}]}
